Experimental data published in publication PMC8286840, “Identifying SARS-CoV-2 antiviral compounds by screening for small molecule inhibitors of Nsp3 papain-like protease” (Biochemical Journal, 2021).
Structures can show the parent of a compound that is named as a salt. Where two headings read alike, the source gives them in different places.

Assays:
[1] = target: T1, SARS-CoV-2 PLpro (nsp3 1564–1878) (Severe acute respiratory syndrome coronavirus 2, UniProt P0DTD1); assay: biochemical; set-up: FRET-quenched peptide (Pro3) cleavage by PLpro, 10 min pre-incubation, slope over 20 min, normalised to no-compound control; details: low concentration screen, read-out: % of control remaining
[2] = target: T1, SARS-CoV-2 PLpro (nsp3 1564–1878); assay: biochemical; set-up: FRET-quenched peptide (Pro3) cleavage by PLpro, 10 min pre-incubation, slope over 20 min, normalised to no-compound control; details: high concentration screen, read-out: % of control remaining

## CN(C(=O)CCCOc1ccc2[nH]c(=O)ccc2c1)C1CCCCC1 [Cilostamide]
[1]; Well no.=234
  remaining activity at 1.25 µM: 91.5%
[1]; Well no.=2142
  remaining activity at 1.25 µM: 95.9%
[2]; Well no.=234
  remaining activity at 3.75 µM: 94.4%
[2]; Well no.=2142
  remaining activity at 3.75 µM: 98.8%

## C[C@]12CC[C@@H]3c4ccc(O)cc4C[C@@H](CCCCCCCCC[S+]([O-])CCCC(F)(F)C(F)(F)F)[C@H]3[C@@H]1CC[C@@H]2O (some centres unmarked) [Fulvestrant]
[1]; Well no.=2254
  remaining activity at 1.25 µM: 97.2%
[2]; Well no.=2254
  remaining activity at 3.75 µM: 96.8%

## CC(C)(C)C[C@@H]1N[C@@H](C(=O)N[C@H]2CC[C@H](O)CC2)[C@H](c2cccc(Cl)c2F)[C@]12C(=O)Nc1cc(Cl)ccc12 [MI-773]
[1]; Well no.=6488
  remaining activity at 1.25 µM: 96.1%
[1]; Well no.=8278
  remaining activity at 1.25 µM: 102%
[2]; Well no.=6488
  remaining activity at 3.75 µM: 93%
[2]; Well no.=8278
  remaining activity at 3.75 µM: 97.3%

## O[C@H]1[C@H]2[C@H](O)CCCN2C[C@H]1O [Swainsonine]
[1]; Well no.=3176
  remaining activity at 1.25 µM: 97.3%
[2]; Well no.=3176
  remaining activity at 3.75 µM: 100%

## CNC(=O)c1cccc(-c2ccc3c(N4CCOC[C@@H]4C)nc(N4CCOC[C@@H]4C)nc3n2)c1 [AZD2014]
[1]; Well no.=5115
  remaining activity at 1.25 µM: 106%
[2]; Well no.=5115
  remaining activity at 3.75 µM: 107%

## CCCCCCCCCCC/C=C\C/C=C\CCCC(=O)O [5(Z), 8(Z)-Eicosadienoic acid]
[1]; Well no.=4410
  remaining activity at 1.25 µM: 93.6%
[2]; Well no.=4410
  remaining activity at 3.75 µM: 92.4%

## CC(N)C(=O)OC(C)(C)Cc1ccc(Cl)cc1 (centres unmarked) [Alaproclate hydrochloride]
[1]; Well no.=208
  remaining activity at 1.25 µM: 102%
[2]; Well no.=208
  remaining activity at 3.75 µM: 102%

## C[C@@H](N)[C@H]1CC[C@H](C(=O)Nc2ccncc2)CC1 [ROCK Inhibitor, Y-27632]
[1]; Well no.=2452
  remaining activity at 1.25 µM: 99.4%
[2]; Well no.=2452
  remaining activity at 3.75 µM: 98.5%

## COc1ccc2c(c1)/C(=C/c1cnc[nH]1)C(=O)N2 [SU9516]
[1]; Well no.=2660
  remaining activity at 1.25 µM: 96.5%
[2]; Well no.=2660
  remaining activity at 3.75 µM: 94.4%

## CN(CC(=O)O)C(=N)N [Creatine]
[1]; Well no.=7457
  remaining activity at 1.25 µM: 101%
[2]; Well no.=7457
  remaining activity at 3.75 µM: 103%

## C[C@@H](O)[C@@H]1NC(=O)[C@H](CCCCN)NC(=O)[C@@H](Cc2c[nH]c3ccccc23)NC(=O)[C@H](Cc2ccccc2)NC(=O)[C@@H](NC(=O)[C@H](N)Cc2ccccc2)CSSC[C@@H](C(=O)N[C@H](CO)[C@@H](C)O)NC1=O [Octreotide]
[1]; Well no.=1977
  remaining activity at 1.25 µM: 103%
[2]; Well no.=1977
  remaining activity at 3.75 µM: 107%

## CCCCC/C=C\C[C@@H](/C=C/C=C\C/C=C\CCCC(=O)O)OO [12(S)-HPETE]
[1]; Well no.=4329
  remaining activity at 1.25 µM: 110%
[2]; Well no.=4329
  remaining activity at 3.75 µM: 103%

## CCCc1cc(=O)oc2c(C(=O)N3CCCc4ccccc43)c(OC)cc(OC)c12 [BNS-22]
[1]; Well no.=5907
  remaining activity at 1.25 µM: 101%
[2]; Well no.=5907
  remaining activity at 3.75 µM: 98.7%

## O=c1[nH]ccc2c(S(=O)(=O)N3CCCNCC3)cccc12 [HA 1100 hydrochloride - 1-[(1,2-Dihydro-1-oxo-5-isoquinolinyl)sulfonyl]hexahydro-1H-1,4-diazepine hydrochloride]
[1]; Well no.=2526
  remaining activity at 1.25 µM: 95.2%
[2]; Well no.=2526
  remaining activity at 3.75 µM: 97.2%

## N#CC(C#N)=Cc1ccc([N+](=O)[O-])c(O)c1 [Tyrphostin AG 126]
[1]; Well no.=1518
  remaining activity at 1.25 µM: 100%
[2]; Well no.=1518
  remaining activity at 3.75 µM: 95.4%

## NCCSSCCN [Cystamine dihydrochloride]
[1]; Well no.=280
  remaining activity at 1.25 µM: 97%
[2]; Well no.=280
  remaining activity at 3.75 µM: 99.9%

## N[C@@H](COP(=O)(O)O)C(=O)O [O-Phospho-L-serine]
[1]; Well no.=806
  remaining activity at 1.25 µM: 98%
[1]; Well no.=6867
  remaining activity at 1.25 µM: 99.1%
[1]; Well no.=6956
  remaining activity at 1.25 µM: 101%
[2]; Well no.=806
  remaining activity at 3.75 µM: 95.7%
[2]; Well no.=6867
  remaining activity at 3.75 µM: 99.4%
[2]; Well no.=6956
  remaining activity at 3.75 µM: 101%

## CCCCCCCCCCCCC/C=C/[C@@H](O)[C@H](CO)NCCCCCCCC [C8 Ceramine]
[1]; Well no.=4409
  remaining activity at 1.25 µM: 101%
[2]; Well no.=4409
  remaining activity at 3.75 µM: 95.2%

## CCCCCCCCCCCCC/C=C/[C@@H](O)[C@H](CO)NC(=O)CCCCCCCCCCCCCCC [C16 Ceramide]
[1]; Well no.=4397
  remaining activity at 1.25 µM: 101%
[2]; Well no.=4397
  remaining activity at 3.75 µM: 101%

## CC1(C)CC=C(c2cnc3ccccc3c2)c2cc(C(=O)Nc3ccc(C(=O)O)cc3)ccc21 [BMS-195614]
[1]; Well no.=5458
  remaining activity at 1.25 µM: 98.2%
[2]; Well no.=5458
  remaining activity at 3.75 µM: 103%

## COc1cc(O)c2c(c1)oc(=O)c1c3cc(O)c(O)cc3oc21 [Wedelolactone]
[1]; Well no.=3230
  remaining activity at 1.25 µM: 99.3%
[2]; Well no.=3230
  remaining activity at 3.75 µM: 98%

## COc1ccnc2[nH]cc(C(=O)C(=O)N3CCN(C(=O)c4ccccc4)C[C@H]3C)c12 [BMS-378806]
[1]; Well no.=8420
  remaining activity at 1.25 µM: 96.7%
[2]; Well no.=8420
  remaining activity at 3.75 µM: 94.2%

## C[C@H]([C@H](O)CCC(C)(C)O)[C@H]1CC[C@@]2(O)C3=CC(=O)[C@@H]4C[C@@H](O)[C@@H](O)C[C@]4(C)[C@H]3CC[C@]12C
[1]; Well no.=3603
  remaining activity at 1.25 µM: 101%
[2]; Well no.=3603
  remaining activity at 3.75 µM: 106%

## COc1ccc2cc([C@@H](C)C(=O)O)ccc2c1 [(-)-Naproxen sodium]
[1]; Well no.=1110
  remaining activity at 1.25 µM: 95.3%
[2]; Well no.=1110
  remaining activity at 3.75 µM: 97.6%

## CCN(N=O)c1ccc(O)c(O)c1 [ET-3,4-dephostatin]
[1]; Well no.=598
  remaining activity at 1.25 µM: 100%
[2]; Well no.=598
  remaining activity at 3.75 µM: 102%

## CN(C)C(=O)C(CCN1CCC(O)(c2ccc(Cl)cc2)CC1)(c1ccccc1)c1ccccc1 [Loperamide (hydrochloride)]
[1]; Well no.=7427
  remaining activity at 1.25 µM: 97.7%
[2]; Well no.=7427
  remaining activity at 3.75 µM: 101%

## C[C@]12CC[C@@H]3c4ccc(O)cc4CC[C@H]3[C@@H]1CC[C@@H]2O [Estradiol]
[1]; Well no.=2034
  remaining activity at 1.25 µM: 99.3%
[1]; Well no.=6449
  remaining activity at 1.25 µM: 98.6%
[2]; Well no.=2034
  remaining activity at 3.75 µM: 96.6%
[2]; Well no.=6449
  remaining activity at 3.75 µM: 101%

## CSc1ccc2c(c1)N(CCC1CCCCN1C)c1ccccc1S2 (centres unmarked) [Thioridazine (hydrochloride)]
[1]; Well no.=7376
  remaining activity at 1.25 µM: 97.9%
[2]; Well no.=7376
  remaining activity at 3.75 µM: 98.1%

## N[C@H](C(=O)O)c1cccc(O)c1 (racemic)
[1]; Well no.=476
  remaining activity at 1.25 µM: 101%
[2]; Well no.=476
  remaining activity at 3.75 µM: 97%

## CC(CN1c2ccccc2Sc2ccccc21)N(C)C (centres unmarked) [Promethazine hydrochloride]
[1]; Well no.=860
  remaining activity at 1.25 µM: 100%
[2]; Well no.=860
  remaining activity at 3.75 µM: 101%

## Oc1c(Cl)cc(Cl)c2cccnc12 [Chloroxine]
[1]; Well no.=5266
  remaining activity at 1.25 µM: 91.9%
[2]; Well no.=5266
  remaining activity at 3.75 µM: 97.2%

## O=C(O)c1cc(-c2ccc(F)cc2F)ccc1O [Diflunisal]
[1]; Well no.=1984
  remaining activity at 1.25 µM: 102%
[2]; Well no.=1984
  remaining activity at 3.75 µM: 102%
